Results from ChEMBL document CHEMBL5385845, “Novel coumarin aminophosphonates as potential multitargeting antibacterial agents against Staphylococcus aureus” (Eur J Med Chem, 2023).
In brackets after ≈: the same amount, converted by molar mass.

Columns and labels:
Assay type in all cases: functional
Staphylococcus aureus [1] = assay: Antibacterial activity against Staphylococcus aureus ATCC 25923 assessed as inhibition of bacterial growth
Enterococcus faecalis = assay: Antibacterial activity against Enterococcus faecalis assessed as inhibition of bacterial growth
Pseudomonas aeruginosa [2] = assay: Antibacterial activity against Pseudomonas aeruginosa ATCC 27853 assessed as inhibition of bacterial growth
Staphylococcus aureus [3] = assay: Antibacterial activity against Staphylococcus aureus assessed as inhibition of bacterial growth
Staphylococcus aureus [4] = assay: Antibacterial activity against Staphylococcus aureus ATCC 29213 assessed as inhibition of bacterial growth
Staphylococcus aureus [5] = assay: Antibacterial activity against methicillin resistant Staphylococcus aureus N315 assessed as inhibition of bacterial growth
Acinetobacter baumannii = assay: Antibacterial activity against Acinetobacter baumannii assessed as inhibition of bacterial growth
Escherichia coli [6] = assay: Antibacterial activity against Escherichia coli assessed as inhibition of bacterial growth
Klebsiella pneumoniae = assay: Antibacterial activity against Klebsiella pneumoniae assessed as inhibition of bacterial growth
Pseudomonas aeruginosa [7] = assay: Antibacterial activity against Pseudomonas aeruginosa assessed as inhibition of bacterial growth
Escherichia coli [8] = assay: Antibacterial activity against Escherichia coli ATCC 25922 assessed as inhibition of bacterial growth

| Structure (SMILES) | MIC (Staphylococcus aureus [1]) [µg/mL] | MIC (Enterococcus faecalis) [µg/mL] | MIC (Pseudomonas aeruginosa [2]) [µg/mL] | MIC (Staphylococcus aureus [3]) [µg/mL] | MIC (Staphylococcus aureus [4]) [µg/mL] | MIC (Staphylococcus aureus [5]) [µg/mL] | MIC (Acinetobacter baumannii) [µg/mL] | MIC (Escherichia coli [6]) [µg/mL] | MIC (Klebsiella pneumoniae) [µg/mL] | MIC (Pseudomonas aeruginosa [7]) [µg/mL] | MIC (Escherichia coli [8]) [µg/mL] |
| --- | --- | --- | --- | --- | --- | --- | --- | --- | --- | --- | --- |
| CCOP(=O)(OCC)C(Nc1ccc2c(C)cc(=O)oc2c1)c1ccc(Cl)cc1Cl (stereo unspecified) | 128 (≈ 272 µM) | 64 (≈ 136 µM) | 64 (≈ 136 µM) | 128 (≈ 272 µM) | 128 (≈ 272 µM) | 128 (≈ 272 µM) | 64 (≈ 136 µM) | 32 (≈ 68 µM) | 64 (≈ 136 µM) | 128 (≈ 272 µM) | 128 (≈ 272 µM) |
| CCOP(=O)(OCC)C(Nc1ccc2c(C)cc(=O)oc2c1)c1cccc(Cl)c1O (stereo unspecified) | 64 (≈ 142 µM) | 128 (≈ 283 µM) | 64 (≈ 142 µM) | 32 (≈ 70.8 µM) | 128 (≈ 283 µM) | 64 (≈ 142 µM) | 128 (≈ 283 µM) | 128 (≈ 283 µM) | 128 (≈ 283 µM) | 16 (≈ 35.4 µM) | 64 (≈ 142 µM) |
| CCOP(=O)(OCC)C(Nc1cc2ccccc2oc1=O)c1cccc(O)c1 (stereo unspecified) | 8 (≈ 19.8 µM) | 16 (≈ 39.7 µM) | 4 (≈ 9.92 µM) | 8 (≈ 19.8 µM) | 32 (≈ 79.3 µM) | 32 (≈ 79.3 µM) | 16 (≈ 39.7 µM) | 64 (≈ 159 µM) | 128 (≈ 317 µM) | 32 (≈ 79.3 µM) | 32 (≈ 79.3 µM) |
| CCOP(=O)(OCC)C(Nc1ccc2c(C)cc(=O)oc2c1)c1ccccc1F (stereo unspecified) | 64 (≈ 153 µM) | 64 (≈ 153 µM) | 32 (≈ 76.3 µM) | 16 (≈ 38.2 µM) | 64 (≈ 153 µM) | 64 (≈ 153 µM) | 64 (≈ 153 µM) | 128 (≈ 305 µM) | 128 (≈ 305 µM) | 256 (≈ 610 µM) | 64 (≈ 153 µM) |
| CCOP(=O)(OCC)C(Nc1ccc2c(C)cc(=O)oc2c1)c1ccc(C(F)(F)F)cc1 (stereo unspecified) | 256 (≈ 545 µM) | 128 (≈ 273 µM) | 64 (≈ 136 µM) | 256 (≈ 545 µM) | 256 (≈ 545 µM) | 256 (≈ 545 µM) | 128 (≈ 273 µM) | 128 (≈ 273 µM) | 128 (≈ 273 µM) | 64 (≈ 136 µM) | 64 (≈ 136 µM) |
| CCOP(=O)(OCC)C(Nc1ccc2c(C)cc(=O)oc2c1)c1nccs1 (stereo unspecified) | 128 (≈ 313 µM) | 128 (≈ 313 µM) | 8 (≈ 19.6 µM) | 16 (≈ 39.2 µM) | 32 (≈ 78.4 µM) | 64 (≈ 157 µM) | 32 (≈ 78.4 µM) | 128 (≈ 313 µM) | 256 (≈ 627 µM) | 64 (≈ 157 µM) | 64 (≈ 157 µM) |
| CCCCc1nc(Cl)c(C(Nc2ccc3c(C)cc(=O)oc3c2)P(=O)(OCC)OCC)n1CO (stereo unspecified) | 16 (≈ 31.3 µM) | 128 (≈ 250 µM) | 32 (≈ 62.5 µM) | 2 (≈ 3.91 µM) | 128 (≈ 250 µM) | 2 (≈ 3.91 µM) | 64 (≈ 125 µM) | 128 (≈ 250 µM) | 16 (≈ 31.3 µM) | 256 (≈ 500 µM) | 16 (≈ 31.3 µM) |
| CCOP(=O)(OCC)C(Nc1ccc2c(C)c(C)c(=O)oc2c1)c1cccc(O)c1 (stereo unspecified) | 64 (≈ 148 µM) | 32 (≈ 74.2 µM) | 16 (≈ 37.1 µM) | 32 (≈ 74.2 µM) | 16 (≈ 37.1 µM) | 128 (≈ 297 µM) | 256 (≈ 593 µM) | 32 (≈ 74.2 µM) | 64 (≈ 148 µM) | 128 (≈ 297 µM) | 64 (≈ 148 µM) |
| CCOP(=O)(OCC)C(Nc1ccc2c(C)c(Cl)c(=O)oc2c1)c1cccc(O)c1 (stereo unspecified) | 32 (≈ 70.8 µM) | 64 (≈ 142 µM) | 128 (≈ 283 µM) | 16 (≈ 35.4 µM) | 32 (≈ 70.8 µM) | 32 (≈ 70.8 µM) | 32 (≈ 70.8 µM) | 128 (≈ 283 µM) | 128 (≈ 283 µM) | 64 (≈ 142 µM) | 16 (≈ 35.4 µM) |
| CCOP(=O)(OCC)C(Nc1ccc2c(C)cc(=O)oc2c1)c1ccc(C(=O)O)cc1 (stereo unspecified) | 128 (≈ 287 µM) | 128 (≈ 287 µM) | 64 (≈ 144 µM) | 64 (≈ 144 µM) | 64 (≈ 144 µM) | 256 (≈ 575 µM) | 128 (≈ 287 µM) | 32 (≈ 71.8 µM) | 64 (≈ 144 µM) | 16 (≈ 35.9 µM) | 256 (≈ 575 µM) |
| CCCCc1nc(Cl)c(C(Nc2ccc3c(C)cc(=O)oc3c2)P(=O)(OCC)OCC)n1Cc1ccc(F)cc1F (stereo unspecified) | 128 (≈ 211 µM) | 128 (≈ 211 µM) | 128 (≈ 211 µM) | 32 (≈ 52.6 µM) | 64 (≈ 105 µM) | 64 (≈ 105 µM) | 64 (≈ 105 µM) | 128 (≈ 211 µM) | 128 (≈ 211 µM) | 256 (≈ 421 µM) | 128 (≈ 211 µM) |
